Test results as given in patent US10357477B2, “Anticancer compounds” (REGENTS OF THE UNIVERSITY OF MINNESOTA, priority 2016, dated 2019).
Converted amounts (≈) assume the structure as drawn.

Assays:
[1] = test system: MCF10A cells (normal human mammary cells); test: Cell viability assay (MTT) in MCF10A cells; format: cell-based; conditions: MCF-10A, 72 h
Protocol: MCF10A cells are maintained in minimum essential medium (MEM) (Invitrogen 11095) supplemented with 10% FBS (Invitrogen 16000), 1% 10× non-essential amino acids (NEAA) (Invitrogen 11140), 1% Penicillin/Streptomycin (Invitrogen 15140), 1% GlutaMAX (Invitrogen 35050-061), 20 ng/mL EGF, […] hydrocortisone, 100 ng/mL cholera toxin, 10 μg/mL insulin.
Cells were plated in 96-well plates at 25×10^4 cells/ml. After 24 hours, compounds were added at 9, 3× dilutions in triplicate from 100 uM final concentration in the appropriate growth media. Plates were incubated for 72 hours at 37° C. in a 5% CO2/95% air humidified atmosphere after which time the media was removed and MTT was added in RPMI phenol red free media. The MTT was removed after 3 hours and formazan crystals were solubilized with 200 μL of isopropanol. Plates were read on a Molecular Devices SpectraMax i3 spectrophotometer at 570 nm for formazan and 690 nm for background subtraction. EC50 values were calculated by fitting the data in GraphPad Prism software.

[2] = Microsomal stability assay, human liver microsomes; format: in vitro ADME; conditions: pH 7.4; human liver microsomes 0.5 mg/mL, 1 mM NADPH, 1 μM compound; read-out: Microsomal Stability t1/2 Human
Protocol: (§1) The in vitro microsomal stability assay was conducted in triplicate in mouse and human liver microsomal systems. In a typical incubation, a compound (typically 1 μM final concentration) was spiked into the reaction mixture containing 0.5 mg/mL of liver microsomal protein and 1 mM of NADPH in 0.1 M potassium phosphate buffer (pH 7.4) at 37° C. At various time points, 1 volume of reaction aliquot was taken and quenched with 3 volumes of acetonitrile with an appropriate internal standard. The samples were then vortexed and centrifuged at 14,000 rpm for 5 min. The supernatants were collected and analyzed by LC-MS/MS to determine the in vitro metabolic half-life (t1/2) and intrinsic clearance (CLint). Verapamil was used as a positive control.
(§2) Quantification and analysis of compounds in biological samples were carried out on an AB Sciex QTrap 5500 mass spectrometer coupled with an Agilent 1260 Infinity HPLC. The chromatographic separation of compounds was achieved using a Phenomenex Kinetex C18 column (50×2.1 mm, 2.6 μm), and MS/MS analysis was conducted using an ESI ion source with MRM detection. The MS/MS detection parameters including declustering potential (DP), entrance potential (EP), collision energy (CE), and collision cell exit potential (CXP) were optimized for each compound.

[3] = Plasma stability assay, mouse plasma; format: in vitro ADME; conditions: 37° C.
Protocol: (§3) The plasma stability assay was performed in triplicate by incubating a compound in normal mouse and human plasma at 37° C. At 0, 1, 3, 6, and 24 h, aliquots of the plasma mixture were taken and quenched with 3 volumes of acetonitrile containing an appropriate internal standard. The samples were then vortexed and centrifuged at 14,000 rpm for 5 min. The supernatants were collected and analyzed by LC-MS/MS to determine the remaining percentage at various time points.
as §2

[4] = Microsomal stability assay, mouse liver microsomes; format: in vitro ADME; conditions: pH 7.4; mouse liver microsomes 0.5 mg/mL, 1 mM NADPH, 1 μM compound; read-out: Microsomal Stability t1/2 Mouse
Protocol: as §1, §2

[5] = Thermodynamic solubility assay; format: physicochemical; conditions: aqueous buffer, thermodynamic from solid, DPBS pH=7.4, 48 h, ambient temperature
Protocol: Briefly, a saturated solution was made by adding DPBS to the solid compound. The mixture was shaken at 200 rpm for 48 h in a MaxQ 6000 orbital shaker at ambient temperature to allow equilibrium between the solid and dissolved compound. The suspension was then filtered through a 0.45 μm PVDF syringe filter and the filtrate was collected for analysis using UV spectrometry (SpectraMax M5e, Molecular Devices) at λ=240 nm.

[6] = Caco-2 permeability assay; format: in vitro ADME; conditions: human, pH 7.4; for Papp A→B at 80 min: apical to basolateral; for Papp B→A at 80 min: basolateral to apical
Protocol: Cell Culture. The human colon adenocarcinoma cell line Caco-2 was purchased from ATCC (American Type Culture Collection, Manassas, Va.), and was cultured in a humidified atmosphere of 5% CO2 at 37° C. Caco-2 cells were cultured in DMEM with 10% FBS, 1% NEAA, 1% GlutaMax and 1% penicillin and streptomycin solution. The culture medium was changed every other day during cell growth and differentiation. On achieving 80-90% confluence, the cells were rinsed with pre-warm DPBS (pH 7.4) and split using trypsin. The cells were then seeded on membranes of Millipore Millicell-24 cell culture device. The transepithelial electrical resistance (TEER) were assessed to reflect membrane integrity using a Millicells® ERS-2 (Millipore, USA). The Caco-2 cell monolayers were used for transport experiments on day 21 post-seeding with TEER values >500 Ω·cm2. Bidirectional Transport Experiments. Before the transport experiments, the cell monolayer was washed three times with HBSS. Then, the plates were incubated in fresh permeability assay buffer (HBSS containing 10 mM glucose and 20 mM HEPES, pH 7.4) at 37° C. The experiments were conducted by spiking test compounds to either the apical (AP, 0.4 mL) or basolateral side (BL, 0.8 mL), while the receiving chamber contained the corresponding volume of pre-warmed permeability assay buffer. Every experiment was repeated in duplicate, and the plates were incubated in an orbital shaker at 37° C., 50 rpm/min. To assess the drug transport, at the incubation time of 20, 40, 60 and 80 min, aliquot was removed and was immediately replenished with an equal volume of permeability assay buffer. The samples were then subjected to LC/MS/MS analysis. The apparent permeability coefficient was indicated by the absorption rate constant Papp. It could be calculated as PBA (measured in BL to AP direction) or PAB (measured in AP to BL direction), using the equation of Papp=(dQ/dt)/(A×C0). dQ/dt is the rate at which the compound appears in the receiver chamber (nmol/s), A is the surface area of the filter membrane (0.7 cm2) and C0 is the initial concentration in the donor chamber (μM). Efflux ratio (ER) was calculated by the equation of ER=PBA/PAB, where PBA is the Papp value measured in BL to AP direction, and PAB is the Papp value measured in AP to BL direction.

MIA PaCa-2 cells = test: Cell viability assay (MTT) in MIA PaCa-2 cells; format: cell-based; conditions: Homo sapiens, antiproliferative activity, 72 h
In short: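 MIA PaCa-2 cells exposed 72 h at 37° C to 2-fold serial compound dilutions from 100 μM final, 0.5% DMSO, in triplicate. Viability by MTT (3 h), formazan read at 570 nm minus 650 nm; EC50 from curve fit.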

[7] = Plasma stability assay, human plasma; format: in vitro ADME; conditions: 37° C.
Protocol: as §3, §2

Row | Structure (SMILES) | EC50 [1] | half-life at 1 μM [2] | Plasma Stability (% remaining, 6 h/24 h) Mouse ([3]; 6 h) | Plasma Stability (% remaining, 6 h/24 h) Mouse ([3]; 24 h) | half-life at 1 μM [4] | solubility at 48 h [5] | Papp A→B at 80 min [6] | Papp B→A at 80 min [6] | EC50 (MIA PaCa-2 cells) | Plasma Stability (% remaining, 6 h/24 h) Human ([7]; 6 h) | Plasma Stability (% remaining, 6 h/24 h) Human ([7]; 24 h)
1 | CNC(=O)c1cccc(Cn2nc(C)c(NC(=O)c3ccc(COc4ccc(C(F)(F)F)cc4C)cc3)c2C)c1 [Compound D10, 3-((3,5-Dimethyl-4-(4-((2-methyl-4-(trifluoromethyl)phenoxy)-methyl)benzamido)-1H-pyrazol-1-yl)methyl)-N-methylbenzamide] | 4.8 µM | 53 min | 88% | 93% | 53 min | 166 ± 2 µM (≈ 91.4 µg/mL) | 3.72 ×10⁻⁶ cm/s | 11.2 ×10⁻⁶ cm/s | 0.62 µM | 98% | 100%
2 | CC(=O)Nc1cccc(Cn2nc(C)c(NC(=O)c3ccc(COc4ccc(C(F)(F)F)cc4)cc3)c2C)c1 [Compound D11, N-(1-(3-Acetamidobenzyl)-3,5-dimethyl-1H-pyrazol-4-yl)-4-((4-(trifluoromethyl)phenoxy)methyl)benzamide] | 8.6 µM | 8.3 min | 2.1% | 0.1% | 7.4 min |  |  |  | 0.87 µM | 96% | 94%
3 | CC(=O)Nc1cccc(Cn2nc(C)c(NC(=O)c3ccc(COc4ccc(C(F)(F)F)cc4C)cc3)c2C)c1 [Compound D12, N-(1-(3-Acetamidobenzyl)-3,5-dimethyl-1H-pyrazol-4-yl)-4-((2-methyl-4-(trifluoromethyl)phenoxy)methyl)benzamide] | 6.6 µM | 14 min | 1.6% | 0.1% | 9.7 min |  |  |  | 1.1 µM | 92% | 95%
4 | CNC(=O)c1cccc(Cn2nc(C)c(NC(=O)c3ccc(COc4ccc(C(F)(F)F)cc4)cc3)c2C)n1 [Compound E1a, 6-((3,5-Dimethyl-4-(4-((4-(trifluoromethyl)phenoxy)methyl)-benzamido)-1H-pyrazol-1-yl)methyl)-N-methylpicolinamide] | 7.8 µM | 47 min |  | —/99% | 65 min |  | 24.5 ×10⁻⁶ cm/s | 21 ×10⁻⁶ cm/s | 0.48 µM |  | —/100%
5 | CNC(=O)c1cccc(Cn2nc(C)c(NC(=O)c3ccc(COc4ccc(C(F)(F)F)cc4C)cc3)c2C)n1 [Compound E1b, 6-((3,5-Dimethyl-4-(4-((2-methyl-4-(trifluoromethyl)phenoxy)methyl)benzamido)-1H-pyrazol-1-yl)methyl)-N-methylpicolinamide] |  | 47 min |  | —/96% | 75 min |  | 3.58 ×10⁻⁶ cm/s | 7.17 ×10⁻⁶ cm/s | 6.3 µM |  | —/100%
6 | CNC(=O)c1cc(Cn2nc(C)c(NC(=O)c3ccc(COc4ccc(C(F)(F)F)cc4)cc3)c2C)ccn1 [Compound E2a, 4-((3,5-Dimethyl-4-(4-((4-(trifluoromethyl)phenoxy)methyl)benzamido)-1H-pyrazol-1-yl)methyl)-N-methylpicolinamide] | 8.3 µM | 112 min |  | —/91% | 64 min |  | 5.02 ×10⁻⁶ cm/s | 5.69 ×10⁻⁶ cm/s | 0.85 µM |  | —/98%
7 | CNC(=O)c1cc(Cn2nc(C)c(NC(=O)c3ccc(COc4ccc(C(F)(F)F)cc4C)cc3)c2C)ccn1 [Compound E2b, 4-((3,5-Dimethyl-4-(4-((2-methyl-4-(trifluoromethyl)phenoxy)methyl)benzamido)-1H-pyrazol-1-yl)methyl)-N-methylpicolinamide] | 7.4 µM | 89 min |  | —/84% | 89 min | 211 ± 5 µM (≈ 116 µg/mL) | 8.34 ×10⁻⁶ cm/s | 5.96 ×10⁻⁶ cm/s | 0.33 µM |  | —/100%
